Like-named read-outs stand apart in the source and are kept apart here.
Assays:
[1] = test system: thrombosis; settings: rodent; cited from earlier work
[2] = test system: patients with Unstable angina/Non ST segment Elevation Myocardial infarction; settings: in vivo
Protocol: The following results are based on a randomized, double-blind triple-dummy trial to compare otamixaban to Unfractionated Heparin+eptifibatide, in patients with Unstable angina/Non ST segment Elevation Myocardial infarction scheduled to undergo an early invasive strategy.
Otamixaban arm: (Bol) 0.080 mg/Kg (I) 0.035 mg/Kg/h or 0.070 mg/Kg/h or 0.105 mg/Kg/h or 0.175 mg/Kg/h
UFH: 60 IU/Kg as IV bolus ([…]) followed by an IV infusion of 12 U/Kg/h (max 1000 IU/h) to maintain a PTT at 1.5 to 2.0 times control and at the time of the PCI additional boluses needed if the ACT is not in the range of 200-250 seconds. NB: In order for the study to be blinded, all aPTTs and ACTs performed in order to adjust Drug B (UFH/placebo) dosing will be performed using an encrypted Hemochron Signature Elite machine (or as a back-up, a local device with a third-party unblinded healthcare professional).
Eptifibatide: a single bolus of 180 mcg/kg followed by an infusion of 2 mcg/kg/min. In patients with CrCl<50 mL/min the infusion rate will be decreased to 1 mcg/kg/min.
Safety: • Non-CABG TIMI significant (Major+Minor) bleeding adjudicated by a blinded Clinical Events Adjudication Committee (CEAC) at Day 7. • Non-CABG TIMI Major bleeding adjudicated by a blinded Clinical Events Adjudication Committee (CEAC) at Day 7. • CABG-related bleeding adjudicated by a blinded Clinical Events Adjudication Committee (CEAC) at Day 7. • TIMI Major Bleeding (Non CABG+CABG) adjudicated by a blinded Clinical Events Adjudication Committee (CEAC) at Day 7. • Adjudicated TIMI Minor bleedings at Day 7 • Adjudicated Thrombotic and non-thrombotic procedural complications during the index PCI (including abrupt or threatened closure, new intracoronary thrombus, side branch closure, distal embolization, noreflow, thrombus in catheter or adherent to guidewire, coronary dissection with decreased flow, difficulty in reaching or crossing lesion, unplanned stent use, suboptimal results, coronary perforation, tamponade). All the above events will be adjudicated by a blinded Independent Adjudication Committee.

[3] = test system: thrombosis; settings: canine; cited from earlier work
[4] = test system: acute coronary syndrome; settings: cited from earlier work
[5] = test system: thrombosis; settings: porcine; cited from earlier work
[6] = molecular target: free factor Xa (Homo sapiens, UniProt P00742); settings: cited from earlier work
Sequence of free factor Xa (P00742 235-488 limits assumed): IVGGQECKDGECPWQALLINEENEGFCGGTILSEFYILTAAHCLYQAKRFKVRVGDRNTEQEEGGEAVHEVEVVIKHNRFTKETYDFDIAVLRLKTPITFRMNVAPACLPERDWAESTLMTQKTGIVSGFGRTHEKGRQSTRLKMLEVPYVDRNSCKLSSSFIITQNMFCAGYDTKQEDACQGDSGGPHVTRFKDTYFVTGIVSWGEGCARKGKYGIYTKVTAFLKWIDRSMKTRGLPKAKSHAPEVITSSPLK
Sequence of free factor Xa (P00742 41-179 limits assumed): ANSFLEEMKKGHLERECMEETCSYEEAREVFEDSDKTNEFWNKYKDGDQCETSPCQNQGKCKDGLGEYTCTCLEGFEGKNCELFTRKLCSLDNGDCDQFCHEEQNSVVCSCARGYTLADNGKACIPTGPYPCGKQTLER

[7] = subgroup pharmacokinetic analysis (concentration of otamixaban); assay type: in vivo, human; settings: dose 4 (0.140 mg/Kg/h)
[8] = molecular target: T1, factor Xa (Homo sapiens, UniProt P00742); settings: patients with stable coronary artery disease taking usual comedication, some with mild renal impairment; cited from earlier work
T1 construct: host or cells: patients (endogenous enzyme)
T1 sequence (P00742 235-488 limits assumed): as the sequence (P00742 235-488 limits assumed) above
T1 sequence (P00742 41-179 partner limits assumed): as the sequence (P00742 41-179 limits assumed) above

[9] = test system: prothrombin fragments 1+2; settings: highest dose regimen; cited from earlier work
[10] = molecular target: factor Xa assembled in the prothrombinase complex (Factor Xa, Factor Va, calcium and phospholipid) (Homo sapiens, UniProt P00742); settings: cited from earlier work
Sequence of factor Xa assembled in the prothrombinase complex (Factor Xa, Factor Va, calcium and phospholipid) (P00742 235-488 limits assumed): as the sequence (P00742 235-488 limits assumed) above
Sequence of factor Xa assembled in the prothrombinase complex (Factor Xa, Factor Va, calcium and phospholipid) (P00742 41-179 limits assumed): as the sequence (P00742 41-179 limits assumed) above
Sequence of factor Xa assembled in the prothrombinase complex (Factor Xa, Factor Va, calcium and phospholipid) (P12259 29-737 partner limits assumed): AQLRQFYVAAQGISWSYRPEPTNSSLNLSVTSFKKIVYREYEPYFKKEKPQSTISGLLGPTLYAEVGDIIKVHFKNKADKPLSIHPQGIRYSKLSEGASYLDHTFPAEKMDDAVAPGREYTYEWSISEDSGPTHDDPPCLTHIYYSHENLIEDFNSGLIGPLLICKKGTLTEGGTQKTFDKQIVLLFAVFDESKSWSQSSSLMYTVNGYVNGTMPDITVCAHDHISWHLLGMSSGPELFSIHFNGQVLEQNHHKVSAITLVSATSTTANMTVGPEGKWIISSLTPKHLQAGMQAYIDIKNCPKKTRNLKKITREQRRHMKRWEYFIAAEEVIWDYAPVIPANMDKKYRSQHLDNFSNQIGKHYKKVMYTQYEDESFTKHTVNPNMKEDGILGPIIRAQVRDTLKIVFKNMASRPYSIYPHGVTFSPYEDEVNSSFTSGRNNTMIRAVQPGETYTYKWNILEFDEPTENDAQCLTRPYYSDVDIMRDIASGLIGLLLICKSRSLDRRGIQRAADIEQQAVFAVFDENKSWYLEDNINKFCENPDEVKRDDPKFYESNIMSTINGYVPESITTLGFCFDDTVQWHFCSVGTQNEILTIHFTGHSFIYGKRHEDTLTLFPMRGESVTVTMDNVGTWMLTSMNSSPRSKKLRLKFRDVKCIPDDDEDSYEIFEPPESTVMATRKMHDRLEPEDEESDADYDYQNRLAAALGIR
Sequence of factor Xa assembled in the prothrombinase complex (Factor Xa, Factor Va, calcium and phospholipid) (P12259 1574-2224 partner limits assumed): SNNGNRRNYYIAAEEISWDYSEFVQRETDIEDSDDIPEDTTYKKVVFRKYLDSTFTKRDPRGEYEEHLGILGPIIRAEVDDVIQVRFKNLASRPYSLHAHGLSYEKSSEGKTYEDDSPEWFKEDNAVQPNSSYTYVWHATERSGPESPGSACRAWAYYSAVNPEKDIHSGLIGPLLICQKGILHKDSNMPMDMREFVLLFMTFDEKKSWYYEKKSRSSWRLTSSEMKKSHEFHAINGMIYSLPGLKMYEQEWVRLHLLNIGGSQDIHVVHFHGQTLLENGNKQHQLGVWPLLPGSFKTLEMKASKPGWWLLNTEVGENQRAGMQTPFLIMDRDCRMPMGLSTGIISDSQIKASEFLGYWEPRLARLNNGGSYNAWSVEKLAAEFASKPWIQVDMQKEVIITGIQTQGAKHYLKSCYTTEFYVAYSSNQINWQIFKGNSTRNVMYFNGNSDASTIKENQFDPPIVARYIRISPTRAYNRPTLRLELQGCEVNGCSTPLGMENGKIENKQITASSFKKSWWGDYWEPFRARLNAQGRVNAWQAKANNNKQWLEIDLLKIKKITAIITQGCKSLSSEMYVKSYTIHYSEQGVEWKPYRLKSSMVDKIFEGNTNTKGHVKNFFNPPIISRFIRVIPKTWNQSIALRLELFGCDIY

Which “efficacy in models of thrombosis” value [1] does the source give for COC(=O)C(Cc1cccc(C(=N)N)c1)[C@@H](C)NC(=O)c1ccc(-c2cc[n+]([O-])cc2)cc1 (mixture of isomers) [Otamixaban, (2R,3R)-2-(3-Carbamimidoyl-benzyl)-3-[4-(1-oxy-pyridin-4-yl)benzoylamino]-butyric acid methyl ester] here?
The value was “highly efficacious”.

What about the “bleeding rate among subgroups (age, baseline creatinine clearance, body weight)” value ([2]; human) of the same compound?
The value was “did not show any increase of the bleeding rate”.

What about the “rates of TIMI major as compared to UFH+eptifibatide” value ([2]; 0.105 mg/kg) of the same compound?
Its value is “numerically higher”.

What about the “rates of TIMI minimal as compared to UFH+eptifibatide” value ([2]; 0.105 mg/kg) of the same compound?
The value was “numerically higher”.

What about the “rates of TIMI minor (for patients without TIMI major) as compared to UFH+eptifibatide” value ([2]; 0.105 mg/kg) of the same compound?
The value was “lower”.

What about the TIMI significant bleeding ([2]; 0.175 mg/kg) of the same compound?
The TIMI significant bleeding was “excessive”.

And the “efficacy in models of thrombosis” value [3]?
The value was “highly efficacious”.

What about the “efficacy, safety and tolerability in humans” value [4] of the same compound?
The value was “efficacious, safe and well tolerated”.

What about the “efficacy in models of thrombosis” value [5] of the same compound?
The value was “highly efficacious”.

And the “inhibition of free factor Xa” value [6]?
The value was “inhibited”.

What about the “concentration of otamixaban in patients with renal impairment and in elderly patients” value [7] of the same compound?
Its value is “higher concentration”.

What about the “factor Xa inhibition in patients” value [8] of the same compound?
The value was “dose-dependent, rapid direct factor Xa inhibition”.

What about the “reduction of prothrombin fragments 1+2 versus unfractionated heparin” value [9] of the same compound?
Its value is “reduced prothrombin fragments 1+2 significantly more than unfractionated heparin”.

What about the “inhibition of factor Xa assembled in the prothrombinase complex” value [10] of the same compound?
Its value is “inhibited”.

Source: US9492437B2, “Otamixaban for treatment of elderly and renal impaired non-ST elevation myocardial infarction patients” (SANOFI, priority 2009, dated 2016)
